The text below walks through data of patent US20260347330A1, “N-METHYL-D-ASPARTATE RECEPTOR (NMDAR) ANTAGONISTS AND USES THEREOF” (Bexson Biomedical, Inc., priority 2022, published 2026).

This test has as its target NMDAR. Description: NMDA receptor [3H]-MK-801 competition radioligand binding in rat forebrain. The settings on record: for NMDAR binding affinity pKi (mean ± SEM): [3H]-MK-801 1 nM competition, 1 mM glutamate, 0.1 mM glycine, pH 7.4, 2 h ambient, N = 1-4; for % inhibition of specific [3H]-MK-801 binding: at 10,000 nM. The method, then: Rat forebrains from 7-8 week old Sprague-Dawley rats (BioChemed, USA) were homogenized in a buffer containing 10 mM HEPES and 1 mM EDTA (pH 7.4) using a mechanical homogenizer (Janke-Kunkel Ultra-Turrax T25). A 10 mL volume was used per brain for all steps involving suspension of the brain homogenate tissue. The brain homogenate was then centrifuged (15 minutes at 20,000 RPM and 4 ° C). The supernatant was carefully poured off and the pellet was resuspended in fresh 10 mM HEPES and 1 mM EDTA containing buffer. This process was repeated 5 times. Following the 5th centrifugation, the buffer was replaced with a buffer containing 10 mM HEPES (pH 7.4). The homogenate was then incubated in a water bath at 37 ° C in the dark (covered with foil). Centrifugation was then repeated 3 additional times and after resuspending in the HEPES buffer, the final homogenate was aliquoted and stored at −80 ° C until use. Protein concentration of the homogenate was determined by utilizing the Bradford method using Coomassie protein assay reagent (Sigma, USA) with Bovine Serum albumin (Sigma, USA) as a standard.
At the time of the experiment, the homogenate was diluted to a final concentration of […] in 10 mM HEPES buffer, 1 mM glutamate, and 0.1 mM glycine (pH 7.4) and combined with 1 nM (+)-[3H]-MK-801 (Perkin Elmer NET972250UC), unlabeled competitor compounds at varying concentrations, or 30 uM MK-801 to determine non-specific binding, in a total volume of 1 mL in a 96 well plate. The protein homogenate is always added to the wells last. The plates were covered with aluminum foil, and placed on a mechanical shaker (250 RPM) for 2 h at ambient temperature ([…]). After 2 h, the homogenate was collected by vacuum filtration using a Unifilter-96 Cell Harvester (Perkin Elmer) over presoaked UniFilter-96 GF/C P Microplates (Perkin Elmer) and filters were washed with room temperature 10 mM HEPES buffer (pH 7.4) (3×1 mL). The filter plates were dried overnight in a fume hood. The next day, the bound tritium was measured via liquid scintillation counting with […] MicroScint-O (Perkin Elmer) added per well, using a MicroBeta2 Plate Reader with 6-detectors scintillation counter (Perkin Elmer) at 55% efficiency. IC50 value estimates were determined in GraphPad Prism 9.3.1 using non-linear regression (single site fit) with log-concentration plotted against percent specific binding. Ki values were calculated using the equation of Cheng and Prusoff. […] Experiments were performed in duplicate. N=1-4 per compound.

Regarding `COc1cccc(C(C)(N)C2CCCC2)c1` (centres unmarked) [Compound 13, 1-cyclopentyl-1-(3-methoxyphenyl)ethan-1-amine], the “NMDAR binding affinity pKi (mean ± SEM)” value was determined as 6.82 ± 0.039. For `C#CC(N)(c1ccccc1)C1CCCC1` (centres unmarked) [Compound 53, 1-cyclopentyl-1-phenylprop-2-yn-1-amine], the “NMDAR binding affinity pKi (mean ± SEM)” value is on record as less than 5.00 and the “% inhibition of specific [3H]-MK-801 binding” value (shortened to “% inhibition of specific”) is on record as 45.0%.

Take `NC(c1ccccc1)C1CCCC1` (centres unmarked) [Compound 27, Cyclopentyl(phenyl)methanamine]: the “NMDAR binding affinity pKi (mean ± SEM)” value is given as less than 5.00 and the “% inhibition of specific” value is on record as 32.4%. Consider `CC(N)(c1cccc(C(F)(F)F)c1)C1CCCC1` (centres unmarked) [Compound 50, 1-cyclopentyl-1-(3-(trifluoromethyl)phenyl)ethan-1-amine], for which the “NMDAR binding affinity pKi (mean ± SEM)” value was determined as 5.86 ± 0.11. As to `CCCC(N)(c1ccccc1)C1CCCC1` (centres unmarked) [Compound 14, 1-cyclopentyl-1-phenylbutan-1-amine], the “NMDAR binding affinity pKi (mean ± SEM)” value was 5.94 ± 0.166.

For the compound `CCCNC(c1ccccc1)C1CCCCC1` (centres unmarked) [Compound 31, N-(cyclohexyl(phenyl)methyl)propan-1-amine], the “NMDAR binding affinity pKi (mean ± SEM)” value stood at 5.76. Same read-out and setting: then `C=CC(N)(c1ccccc1)C1CCCC1` (centres unmarked) [Compound 10, 1-cyclopentyl-1-phenylprop-2-en-1-amine], with 6.05; and `CCNC(c1ccccc1)C1CCCC1` (centres unmarked) [Compound 32, N-(cyclopentyl(phenyl)methyl)ethanamine], with 5.85. Same read-out and setting: the result for `COc1ccc(C(C)(N)C2CCCC2)cc1` (centres unmarked) [Compound 49, 1-cyclopentyl-1-(4-methoxyphenyl)ethan-1-amine] reads 6.49 ± 0.0039. In the case of `C=CCC(N)c1ccccc1` (centres unmarked) [Compound 30, 1-phenylbut-3-en-1-amine], the “NMDAR binding affinity pKi (mean ± SEM)” value is recorded as less than 5.00 and the “% inhibition of specific” value was 43.9%. On to `CC(N)(c1ccc(F)cc1)C1CCCC1` (centres unmarked) [Compound 48, 1-cyclopentyl-1-(4-fluorophenyl)ethan-1-amine], for which the “NMDAR binding affinity pKi (mean ± SEM)” value stood at 6.96 ± 0.019.

`CC(N)(c1ccccc1)C1CCC1` (centres unmarked) [Compound 47, 1-cyclobutyl-1-phenylethan-1-amine]: the “NMDAR binding affinity pKi (mean ± SEM)” value worked out at 6.75 ± 0.016. Regarding `CC(N)(c1cc2ccccc2s1)C1CCCC1` (centres unmarked) [Compound 51, 1-(benzo[b]thiophen-2-yl)-1-cyclopentylethan-1-amine], the “NMDAR binding affinity pKi (mean ± SEM)” value is given as less than 5.00 and the “% inhibition of specific” value amounted to 34.6%.
